Data: US20160045505A1, “COMPOUNDS AND COMPOSITIONS FOR THE TREATMENT OF PARASITIC DISEASES” (NOVARTIS AG, priority 2013, published 2016)
pEC50: −log10 of the molar value. Read-outs that look alike come from different tables or passages of the source.

Assays:
[1] = test system: Leishmania donovani axenic amastigote parasites; test: Leishmania donovani axenic amastigote proliferation assay (Cell TiterGlo luminescence, 2 day incubation); format: cell-based; settings: Leishmania donovani; for pEC50: read-out: L. donovani amastigotes EC50; for EC50: read-out: L. donovani amastigotes EC50 (μM)
[2] = test system: L. donovani HU3 strain in mouse peritoneal macrophages; test: Assay for proliferation of Leishmania parasites in infected mouse peritoneal macrophages (SybrGreen staining, high-content imaging, 5 days); format: cell-based, Leishmania donovani; settings: Leishmania donovani, Peritoneal macrophage; for pEC50: L. donovani in mouse peritoneal macrophages, read-out: L. donovani Macrophage EC50; for EC50: read-out: L. donovani Macrophage EC50 (μM)
[3] = test system: Trypanosoma cruzi amastigotes (Tulahuen strain expressing Lac-Z) cultured in 3T3 fibroblast cells; test: microbe, parasite or virus in culture; format: cell-based; settings: Trypanosoma cruzi, TULAHUEN; for EC50: read-out: T cruzi EC50 (μM)
[4] = Fibroblast, T. cruzi amastigotes in 3T3 fibroblast cells, read-out: T cruzi EC50
[5] = axenic amastigotes, inhibition of proliferation
[6] = Fibroblast, T. cruzi amastigotes in 3T3 fibroblast cells, inhibition of proliferation, read-out: T cruzi EC50

Row | SMILES | pEC50 ([1]; L. donovani axenic amastigotes) | pEC50 [2] | pEC50 [3, 4] | pEC50 [1, 5] | pEC50 ([2]; inhibition of proliferation) | pEC50 [3, 6] | further results
1 | Cc1nc(C)c(C(=O)Nc2ccc(Cl)c(-c3cn4cc(N5CCOC5=O)cnc4n3)c2)o1 [Compound 520, N-(4-chloro-3-(6-(2-oxooxazolidin-3-yl)imidazo[1,2-a]pyrimidin-2-yl)phenyl)-2,4-dimethyloxazole-5-carboxamide] | < 4.60 | < 4.30 | < 4.70 | – | – | – | –
2 | Cc1nc(C)c(C(=O)Nc2ccc(F)c(-c3cn4cc(N5CCC5)cnc4n3)c2)o1 [Compound 559] | < 4.60 | < 4.30 | < 4.70 | – | – | – | –
3 | Cc1nc(C)c(C(=O)Nc2ccc(F)c(-c3cn4cc(C5CCOCC5)cnc4n3)c2)o1 [Compound 421] | 6.90 | 6.47 | 6.77 | – | – | – | –
4 | COC(C)C(=O)Nc1ccc(Cl)c(-c2cn3cc(NC(=O)OC(C)C)cnc3n2)c1 (stereo not shown) [Compound 54] | – | – | – | 5.71 | 4.84 | 5.89 | –
5 | O=C(Nc1ccc(F)c(-c2cn3cc(-c4ccccc4)cnc3n2)c1)c1ccc(F)o1 [Compound 576, 5-fluoro-N-(4-fluoro-3-(6-phenylimidazo[1,2-a]pyrimidin-2-yl)phenyl)furan-2-carboxamide] | 6.28 | 6.09 | 7.30 | – | – | – | –
6 | CC(C)OC(=O)Nc1cnc2nc(-c3cc(NC(=O)N4CC5(COC5)C4)ccc3F)cn2c1 [Compound 294] | – | – | – | < 4.60 | < 4.35 | < 4.70 | –
7 | CC(C)OC(=O)Nc1cnc2nc(-c3cc(NC(=O)N4CCC(N5CCOCC5)C4)ccc3Cl)cn2c1 (stereo not shown) [Compound 273] | – | – | – | < 4.60 | < 4.30 | < 4.70 | –
8 | CC(C)OC(=O)Nc1cnc2nc(-c3cc(Nc4cccnc4)ccc3F)cn2c1 [Compound 486] | 4.79 | < 4.30 | 5.84 | – | – | – | –
9 | O=C(Nc1ccc(F)c(-c2cn3cc(Nc4ncccc4C(F)(F)F)cnc3n2)c1)N1CCCC1 [Compound 191] | – | – | – | 7.55 | 6.84 | 7.48 | –
10 | CC(C)OC(=O)Nc1cnc2nc(-c3cc(NC(=O)N4CCCC4)ccc3Cl)cn2c1 [Compound 2, propan-2-yl N-(2-{2-chloro-5-[(pyrrolidin-1-yl)carbonylamino]phenyl}imidazo[1,2-a]pyrimidin-6-yl)carbamate] | – | – | – | 7.02 | 6.57 | 6.61 | –
11 | Cc1nc(C)c(C(=O)Nc2ccc(F)c(-c3cn4cc(N5CCN(C)CC5)cnc4n3)c2)o1 [Compound 565, N-(4-fluoro-3-(6-(4-methylpiperazin-1-yl)imidazo[1,2-a]pyrimidin-2-yl)phenyl)-2,4-dimethyloxazole-5-carboxamide] | – | – | – | – | – | – | EC50 [1]: 12.3 µM; EC50 [2]: 6.27 µM; EC50 ([3]; Fibroblast): 11.2 µM
12 | O=C(Nc1ccc(F)c(-c2cn3cc(C4CCOCC4)cnc3n2)c1)N1CCCC1 [Compound 419] | 7.11 | 6.74 | 6.94 | – | – | – | –
13 | COCCNc1cnc2nc(-c3cc(NC(=O)N4CCCC4)ccc3Cl)cn2c1 [Compound 496] | 5.69 | 5.05 | 5.67 | – | – | – | –
14 | O=C(Nc1ccc(F)c(-c2cn3cc(-c4ccccn4)cnc3n2)c1)N1CCC1 [Compound 404] | 7.96 | 7.47 | 7.77 | – | – | – | –
15 | CC(C)OC(=O)Nc1cnc2nc(-c3cc(NC(=O)N4CCN(C)CC4)ccc3Cl)cn2c1 [Compound 218] | – | – | – | < 4.60 | 4.50 | < 4.70 | –
16 | Cc1nc(C(=O)Nc2ccc(Cl)c(-c3cn4cc(NC(=O)OC(C)C)cnc4n3)c2)c[nH]1 [Compound 59] | – | – | – | < 4.60 | < 4.30 | < 4.70 | –
17 | CC(C)OC(=O)Nc1cnc2nc(-c3cc(NC(=O)N4CCC[C@H]4C(N)=O)ccc3Cl)cn2c1 [Compound 262] | – | – | – | < 4.60 | < 4.30 | < 4.70 | –
18 | COc1cnc2nc(-c3cc(NC(=O)N4CCCC4)ccc3F)cn2c1 [Compound 536, N-(4-fluoro-3-(6-methoxyimidazo[1,2-a]pyrimidin-2-yl)phenyl)pyrrolidine-1-carboxamide] | 6.46 | 5.70 | 6.82 | – | – | – | –
19 | Cc1cc(C(=O)Nc2ccc(F)c(-c3cn4cc(NC(=O)OC(C)C)cnc4n3)c2)n[nH]1 [Compound 77] | – | – | – | 5.03 | < 4.30 | < 4.70 | –
20 | CC(=O)Nc1cnc2nc(-c3cc(NC(=O)c4oc(C)nc4C)ccc3F)cn2c1 [Compound 525, N-(3-(6-acetamidoimidazo[1,2-a]pyrimidin-2-yl)-4-fluorophenyl)-2,4-dimethyloxazole-5-carboxamide] | – | – | – | – | – | – | EC50 [1]: 5.35 µM; EC50 [2]: 21.1 µM; EC50 ([3]; Fibroblast): > 20 µM
21 | CC(C)OC(=O)Nc1cnc2nc(-c3cc(NC(=O)N4CCC(C)(C(=O)O)C4)ccc3Cl)cn2c1 (stereo not shown) [Compound 280] | – | – | – | < 4.60 | < 4.38 | < 4.70 | –
22 | CC(=O)OC(C)C(=O)Nc1ccc(Cl)c(-c2cn3cc(NC(=O)OC(C)C)cnc3n2)c1 (stereo not shown) [Compound 56] | – | – | – | 4.72 | < 4.30 | 4.94 | –

Row | SMILES | pEC50 ([1]; L. donovani axenic amastigotes) | pEC50 [2] | pEC50 [3, 4] | pEC50 [1, 5] | pEC50 ([2]; inhibition of proliferation) | pEC50 [3, 6] | further results
23 | Cc1nc(C)c(C(=O)Nc2ccc(F)c(-c3cn4cc(-c5ccccn5)cnc4n3)c2)o1 [Compound 394] | 7.10 | 6.97 | < 4.70 | – | – | – | –
24 | CC(C)OC(=O)Nc1cnc2nc(-c3cc(NC(=O)C4CCCO4)ccc3Cl)cn2c1 (stereo not shown) [Compound 55] | – | – | – | 5.14 | 4.57 | 5.38 | –
25 | CC(C)OC(=O)Nc1cnc2nc(-c3cc(NC(=O)N4CCC(NC(=O)OC(C)(C)C)C4)ccc3Cl)cn2c1 (stereo not shown) [Compound 268] | – | – | – | < 4.60 | 4.84 | 4.97 | –
26 | Cc1nc(C)c(C(=O)Nc2ccc(F)c(-c3cn4cc(-c5nc(C)c(C)s5)cnc4n3)c2)o1 [Compound 457, N-(3-(6-(4,5-dimethylthiazol-2-yl)imidazo[1,2-a]pyrimidin-2-yl)-4-fluorophenyl)-2,4-dimethyloxazole-5-carboxamide] | 6.79 | 4.88 | 6.49 | – | – | – | –
27 | CC(C)OC(=O)Nc1cnc2nc(-c3cc(NC(=O)[C@@H](N)c4ccccc4)ccc3F)cn2c1 [Compound 84] | – | – | – | < 4.60 | 5.00 | 5.06 | –
28 | CN(CC(F)(F)F)C(=O)Nc1ccc(F)c(-c2cn3cc(C4=CCOCC4)cnc3n2)c1 [Compound 326] | – | – | – | 6.80 | 6.30 | 6.91 | –
29 | Cc1nc(C)c(C(=O)Nc2ccc(F)c(-c3cn4cc(NC(=O)c5ccc(F)cn5)cnc4n3)c2)o1 [Compound 187] | – | – | – | 7.51 | < 4.30 | 6.85 | –
30 | CC(C)OC(=O)Nc1cnc2nc(-c3cc(NC(=O)N4CCC4)ccc3Cl)cn2c1 [Compound 278] | – | – | – | 6.75 | 5.97 | 5.96 | –
31 | Cc1nc(C)c(C(=O)Nc2ccc(F)c(-c3cn4cc(-c5ccccc5)cnc4n3)c2)o1 [Compound 333] | – | – | – | 7.06 | 7.06 | 7.80 | –
32 | O=C(Nc1ccc(F)c(-c2cn3cc(-n4cn[nH]c4=O)cnc3n2)c1)N1CCCC1 [Compound 534, N-(4-fluoro-3-(6-(5-oxo-1H-1,2,4-triazol-4(5H)-yl)imidazo[1,2-a]pyrimidin-2-yl)phenyl)pyrrolidine-1-carboxamide] | < 4.63 | < 4.30 | < 4.70 | – | – | – | –
33 | CC(C)NC(=O)Nc1ccc(Cl)c(-c2cn3cc(NC(=O)OC(C)C)cnc3n2)c1 [Compound 277] | – | – | – | 5.16 | 4.97 | 5.41 | –
34 | CC(C)OC(=O)Nc1cnc2nc(-c3cc(NC(=O)NC4CC4)ccc3Cl)cn2c1 [Compound 285] | – | – | – | 4.93 | 4.79 | 5.30 | –
35 | Cc1nc(C)c(C(=O)Nc2ccc(F)c(-c3cn4cc(NC5=NCCN5C)cnc4n3)c2)o1 [Compound 506] | < 4.60 | < 4.59 | < 4.74 | – | – | – | –
36 | CC(C)OC(=O)Nc1cnc2nc(-c3cc(NC(=O)N4CCC(=O)C4)ccc3Cl)cn2c1 [Compound 281] | – | – | – | 5.06 | < 4.43 | < 4.70 | –
37 | CC(C)NNC(=O)Nc1cnc2nc(-c3cc(NC(=O)N4CCCC4)ccc3F)cn2c1 [Compound 522] | 4.71 | < 4.30 | < 4.70 | – | – | – | –
38 | Cc1nc(C)c(C(=O)Nc2ccc(F)c(-c3cn4cc(C5=CCN(C)CC5)cnc4n3)c2)o1 [Compound 361] | – | – | – | 5.10 | 6.00 | 5.98 | –
39 | CC(C)OC(=O)Nc1cnc2nc(-c3cc(NC(=O)N4CC(=O)C4)ccc3Cl)cn2c1 [Compound 279] | – | – | – | 5.61 | 5.02 | < 4.76 | –
40 | Cc1nc(C)c(C(=O)Nc2ccc(F)c(-c3cn4cc(NC(=O)C5CCCCO5)cnc4n3)c2)o1 (stereo not shown) [Compound 151] | – | – | – | 6.87 | 6.37 | 6.23 | –
41 | O=C(Nc1ccc(F)c(-c2cn3cc(C4=CCOCC4)cnc3n2)c1)N1CCCC1 [Compound 353] | – | – | – | 7.29 | 6.95 | 7.28 | –
42 | CC(C)OC(=O)Nc1cnc2nc(-c3cc(NC(=O)c4ccc(F)o4)ccc3Cl)cn2c1 [Compound 1, Propan-2-yl N-{2-[2-chloro-5-(5-fluorofuran-2-amido)phenyl]imidazo[1,2-a]pyrimidin-6-yl}carbamate] | – | – | – | 7.06 | 6.61 | 7.52 | pEC50 ([3]; NIH3T3, 144 h, T. cruzi amastigotes in 3T3 cells, 6 day incubation, read-out: EC50): 7.52
43 | O=C(Nc1ccc(F)c(-c2cn3cc(-c4ccc(CCN5CCOCC5)cc4)cnc3n2)c1)N1CCCC1 [Compound 352] | – | – | – | 6.67 | 7.21 | 7.74 | –
